Results from patent publication US20050238679A1, “Taurine-containing preparations for improving the skin barrier” (Beiersdorf AG, priority 2004, published 2005).

Key:
[1] = interfacial tension towards water as measure of polarity of lipids; format: physicochemical; settings: lipid/oil component against water; regarded as polar if less than 30 mN/m
Description: Oils and fats differ from one another in their polarity, which is difficult to define. It has already been proposed to adopt the interfacial tension towards water as a measure of the polarity index of an oil or of an oily phase. Then, the lower the interfacial tension between this oily phase and water, the greater the polarity of the oily phase in question. According to the invention, the interfacial tension is regarded as one possible measure of the polarity of a given oil component.
The interfacial tension is the force which acts on an imaginary line one meter in length in the interface between two phases. The physical unit for this interfacial tension is conventionally calculated from the force/length relationship and is usually expressed in mN/m (millinewtons divided by meters). It has a positive sign if it endeavours to reduce the interface. In the converse case, it has a negative sign. For the purposes of the present invention, lipids are regarded as polar if their interfacial tension towards water is less than 30 mN/m.
Nonpolar oils are, for example, those which are chosen from the group of branched and unbranched hydrocarbons and hydrocarbon waxes, in particular Vaseline (petrolatum), paraffin oil, squalane and squalene, polyolefins and hydrogenated polyisobutenes. Among the polyolefins, polydecenes are the preferred substances.

[2] = stability of taurine under customary storage conditions; format: physicochemical; settings: various pH values (5<pH<7), customary storage conditions (+6° C., −10° C., rocking test)
Description: On account of its solubility in water, it is used in various bases such as O/W creams, W/O creams, PIT emulsions, hydrous sticks, hydrodispersions etc. […] Dry skin has a reduced skin barrier. Taurine brings about an increase in the skin moisturization of cosmetic preparations. Moisturization of dry skin brings about a strengthening of the skin barrier, which means that foreign substances can penetrate less easily through the skin into the deeper skin layers. However, taurine applied to the skin penetrates […] into the lower skin layers.

interfacial tension towards water [1]	stability [2]	SMILES
29.7 mN/m	–	CCCCCCCCOC(=O)CCCCCCCCCCCCCCC(C)C [PRISORINE ® 2036, Octyl Isostearate]
28.7 mN/m	–	CCCCCCCCCCCCCCCCCCOC(=O)CCCCCC [TEGOSOFT ® SH, Stearyl Heptanoate]
–	very good stability	NCCS(=O)(=O)O [Taurine, 2-aminoethanesulphonic acid]
20.2 mN/m	–	CCCCCCCC(=O)OCC(COC(=O)CCCCCCC)OC(=O)CCCCCCC [TRIVENT ® OCG, Tricaprylin]

The next lines start with the molecule.

SMILES	interfacial tension towards water [1]	stability [2]
CCCCCCCCCCCCCC(=O)OCC(CCCCCCCC)CCCCCCCCCC (stereo not shown) [MOD, Octyldodeceyl Myristate]	22.1 mN/m	–
CCCCCCCCCCCCCCCCCC(=O)OC(C)C [Isopropyl stearate, Isopropyl Stearate]	21.9 mN/m	–
CCCCCCCCCCCCCCCCCC(=O)OCCCCCCCC [CETIOL ® 868, Octyl Stearate]	28.4 mN/m	–
